# Data taken from patent US20160263140A1, “USE OF COMPOUNDS ACTIVATING SIRT-3 FOR MIMICKING EXERCISE” (President and Fellows of Harvard College, priority 2007, published 2016).
# Entries after “also recorded” stand apart in the source; their conditions may differ.
# Columns and labels:
# HEK293 cells [1] = assay: Cell death assay after MMS treatment (FACS, propidium iodide); assay type: cell-based; details: for effect on Nampt-mediated cell protection/survival against MMS: HEK293 cells stably overexpressing Nampt, MMS treatment, sirtinol 100 μM
# Method: Human embryonic kidney (HEK293) and human fibrosarcoma HT1080 cell lines were obtained from ATCC and grown in complete DMEM medium with 10% FBS and 100 μg/ml penicillin/streptomycin. To generate Nampt overexpression or empty vector stable clones, hNAMPT/pcDNA or pcDNA empty vector were transfected into HEK293 or HT1080 cells and selected with 0.5-1.0 mg/ml geneticin. To generate Nampt knockdown cells, siRNA/NAMPT/pMSCV or pMSCV empty vector were transfected into HT1080 cells, and stable clones were selected with 500 ng/ml puromycin. Primary neonatal rat cardiomyocytes were prepared as described previously (Matsui et al., 1999). Isolated cardiomyocytes were grown in complete medium (RPMI 1640, 5% fetal calf serum, 10% horse serum) to 80% confluence before cells were subjected to hypoxia and/or serum starvation. For hypoxia, medium was changed to RPMI 1640 with or without serum saturated with 95% N2/5% CO2 and then cells were placed in a 37° C. airtight box saturated with 95% N2/5% CO2 for 18 hours. O2 concentrations were <0.1% (Ohmeda oxygen monitor, type 5120). To serum starve HT1080, cells were grown in DMEM medium containing no serum. Cells were harvested after 26 h of serum starvation and Nampt expression was analyzed by Western blotting.
# (§1) HEK293 and HT1080 cells at less than 85% confluency were treated with MMS (1.2 mM) for 6-8.5 h and 8-17 h, respectively. Transiently transfected cells were washed 3 times with PBS to remove residual transfection reagents before treating with MMS. HEK293 cells and HT1080 cells were exposed to etoposide for 72 h or 46 h, at 120 or 40 μM, respectively. HT1080 cells were exposed to camptothecin at 14 μM for 23 h. After drug treatments, cells were harvested by trypsinization, pelleted by centrifugation and resuspended in PBS containing 3% FBS. Cell death was analyzed by FACS using propidium iodide (PI) staining. Cells transiently-transfected with mNAMPT/MSCV, SIRT1-7 siRNA, Nmnat-3, or hMFT siRNA oligos and co-transfected with FAM-labeled scrambled siRNA oligos, percent cell death was determined by as the proportion of PUGFP or PIFAM positive cells versus the total number of cells with green fluorescence.
# HEK293 cells [2] = assay: Total cellular NAD+ by HPLC-MALDI-MS after MMS; assay type: cell-based, human; details: 1.2 mM MMS, 2 and 4 h, irrespective of Nampt levels
# Method: as §1
# NAD^+ was determined by as described previously (Sauve and Schramm, 2003), with the following modifications. HEK293 or HT1080 cells were harvested by trypsinization and counted by haemocytometer. NAD^+ was extracted from whole cells or mitochondrial pellets by adding 10% perchloric acid and sonicating for 5 min on ice. […] The volume of mitochondrial pellets was calculated by considering the density of the mitochondria pellets to be 1.0 μL/mg. […]
# [3] = test system: mitochondria from fresh rat livers; assay: NAD+ levels in isolated liver mitochondria by HPLC-MALDI-MS; details: for change of mitochondrial NAD+ levels (in words): FK866 10 nM and/or MMS 1:1000, 30 min at 37° C.
# Method: Unless otherwise stated, fractionation of cultured cells was performed using a differential centrifugation and sucrose gradient procedure with slight modifications (Schwer et al., 2002). For drug treatment of mitochondria, fresh mitochondria were obtained from livers excised from fed young male rats. Half of the liver homogenate was used for mitochondrial isolation using a commercially available kit as described by manufacturer's instructions, designated Protocol 1 (Pierce Mitochondrial Isolation kit, Rockford, Ill.). The other half of the original homogenate was subjected to a differential centrifugation protocol to isolate mitochondria (Protocol 2). Mitochondria (500 μl) were added to a 48-well plate and treated with methylmethane sulfonate (MMS) at 1:1000 dilution and/or FK866 (10 nM) for 30 min at 37° C. Suspensions were spun down for 1 min at 14,000 rpm at 4° C. and pellets were stored at −80° C. prior to NAD^+ analysis by HPLC-MALDI-MS. Detailed protocols are described in Supplemental Information.
# NAD^+ was determined by as described previously (Sauve and Schramm, 2003), with the following modifications. HEK293 or HT1080 cells were harvested by trypsinization and counted by haemocytometer. NAD^+ was extracted from whole cells or mitochondrial pellets by adding 10% perchloric acid and sonicating for 5 min on ice. The reference standard ^18O-NAD^+ (typically […]) was then added to the sample. After mixing well, samples were centrifuged for 3 min then neutralized with NaOH. NAD^+ in the supernatant (100 μL sample) was separated from other cellular components by HPLC. NAD^+ peaks were collected according to the standards' retention time and dried with a lyophilizor. […] The volume of mitochondrial pellets was calculated by considering the density of the mitochondria pellets to be 1.0 μL/mg. Total cellular NAD^+ concentrations were calculated by dividing the quantity of NAD^+ per cell by the mean cell volume (MCV) as measured by a Coulter counter, which for HT1080 was […] and for HEK293 was […]. […]
# GLUT4 = GLUT4 protein expression in SIRT3-expressing C2C12 myotubes (Western blot); assay type: cell-based, murine; details: 40 μM, 3-hour treatment
# Method: (§2) C2C12 myocytes and BOSC23 cells were cultured in Dulbecco's modified Eagle's medium containing 10% bovine calf serum. For C2C12 differentiation, at confluence, cells were incubated in Dulbecco's modified Eagle's medium with 2% horse serum (Hyclone, Logan, Utah) for three days. Inhibition of AMPK in selected studies was achieved by adding compound C (6-[4-(2-Piperidin-1-yl-ethoxy)-phenyl)]-3-pyridin-4-yl-pyrrazolo[1,5-a]-pyrimidine, Merck) (31) to the media for 3 hours at a final concentration of 40 μM. […]
# AMPK = AMPK phosphorylation in C2C12 myotubes (Western blot); assay type: cell-based, murine; details: 40 μM, 3-hour treatment; vector- and SIRT3-transfected C2C12 myotubes
# Method: as §2
smiles,measurement,setting,value
CC(NC(=O)c1ccccc1/N=C/c1c(O)ccc2ccccc12)c1ccccc1 (stereo not shown) [sirtinol],effect on Nampt-mediated cell protection/survival against MMS,HEK293 cells [1],did block the ability of Nampt overexpression to protect cells
"COS(C)(=O)=O [MMS, methylmethane sulfonate]",cell death caused by MMS treatment,"HEK293 cells [1]; 1.2 mM MMS, vector control cells",death of about half the vector control cells
same,total NAD+ concentration after MMS treatment,HEK293 cells [2],< 100 µM
same,change of mitochondrial NAD+ levels (in words),[3],reduced
same,reduction of mitochondrial NAD+ levels,"[3]; MMS 1:1000 dilution, 30 min at 37° C.",~2 fold
"O=C1NCCc2c(OCCCCN3CCCCC3)cccc21 [DPQ, 3,4-dihydro-5-[4-(1-piperidinyl)butoxy]-1(2H)-isoquinolinone]",extent of MMS-induced cell death,"HEK293 cells [1]; HEK293 cells, MMS, 30 μM DPQ",greatly reduced; also recorded: Attenuated
O=C(/C=C/c1cccnc1)NCCCCC1CCN(C(=O)c2ccccc2)CC1 [FK866],effect on Nampt-mediated cell protection/survival against MMS,HEK293 cells [1],prevented cell protection by Nampt overexpression; also recorded: the effect is blocked
same,change of mitochondrial NAD+ levels (in words),[3],even larger decreases in mitochondrial NAD+ levels; also recorded: reduced
c1cc(-c2cnn3cc(-c4ccc(OCCN5CCCCC5)cc4)cnc23)ccn1 [compound C],ability of SIRT3 to increase GLUT4 protein expression,GLUT4,completely abolished
same,AMPK phosphorylation,AMPK,decreased AMPK phosphorylation
